Data taken from patent US7279542B2, “Polymeric particles and fragrance delivery systems” (Firmenich SA, priority 2003, dated 2007).
Like-named read-outs stand apart in the source and are kept apart here.

Tests used:
[1] = LogP of fragrance raw materials (partition coefficient between octanol and water); type: physicochemical
[2] = Swelling of micro-capsules with single fragrance raw materials (mass fraction in swollen micro-capsule); type: physicochemical; conditions: micro-capsules of Example 4 swelled with excess raw material, 1 to 3 days
Text: The capsules were allowed to swallow with an excess of the model-perfume (see Example 1) during 1 to 3 days. The swelled micro-particles were then separated from the remaining perfume by filtration and washed with ethanol. This experiment was repeated for various raw materials having various chemical functionalities or various polarities (i.e. LogP, P being the partition coefficient between octanol and water).

[3] = P = partition coefficient between octanol and water, read-out: LogP

Row | Structure (SMILES) | logP [1, 3] | Fragrance mass fraction in the final swollen micro-capsule weight [%] [2] | logP [1]
1 | CC(=O)OCc1ccccc1 [Benzyl acetate] | 1.57 | 49.8% | –
2 | CC(C)=CCC/C(C)=C/CO [Geraniol] | 3.59 | 36.2% | –
3 | O=C1CCCCCCCCC/C=C/CCCO1 [Habanolide ®, pentadecenolide] | – | 50.3% | 5.37
4 | CCCCCCOC(=O)c1ccccc1O [Hexyl salicylate] | 4.91 | 50.7% | –
